This is an account of results in patent US9694024B2 (priority 2010, dated 2017).

The conditions of data set [1]: cited from earlier work.
Data set [2] deals with human PBMCs. Description: Intracellular TFV-diphosphate in human PBMCs in vitro. Conditions: human PBMCs (IL-2/PHA) after incubation with 1 μM CMX157 for 48 hours.
Data set [3] concerns CEM-SS cells. Description: Toxicity XTT in CEM-SS cells. On the technique in general: Tetrazolium dyes change colour on reduction, which living cells bring about.
Data set [4] concerns HIV-1IIIB. Description: Anti-HIV-1 cytoprotection assay (CEM-SS, XTT).
Data set [5] has as its target human OAT3 (organic anion transporter3) (Homo sapiens (Human), UniProt Q8TCC7). Briefly: hOAT3 mediated uptake in MDCK-II cells. The format is in vitro ADME. Conditions: for Cellular Accumulation (control): control vector cells of hOAT3 test; for Cellular Accumulation (transporter): hOAT3 expressing MDCK-II cells. The method, then: Experimental: The uptake test system was comprised of a polarized monolayer of MCDK-II cells grown on permeable supports. The MDCK-II cells were treated to express the transporter of interest or treated with a control vector.
The uptake of 2 μM [^3H]-p-aminohippurate (PAH) and 0.75 μM [^3H]-estrone-3-sulfate (E-3-S) in the absence and presence of the reference inhibitor was determined by radiometric detection. The uptake of CMX157 and tenofovir was in the absence and presence of the reference inhibitor or 20% human serum was determined by LC/MS/MS. Experiments were performed under the same conditions for the cells expressing the transporter or those treated with the control vector.
Net Transporter Mediated Uptake=(Cellular accumulation in the presence of the transporter)−(Cellular accumulation in the absence of the transporter) Results: The net hOAT1 mediated uptake of tenofovir in the presence and absence of 100 μM probenecid or 20% human serum is shown in FIG. 8. The transport of tenofovir is inhibited by probenecid and relatively unchanged by the presence of 20% human serum. OAT3 also appeared to mediate the transport of tenofovir. The effect of probenecid, however, was minimal. The presence of 20% human serum in the OAT3 experiment reduced the OAT3 mediated transport of tenofovir.

Data set [6] is described as follows: Phase I single dose study, plasma pharmacokinetics. The format is in vivo, human. The following applies: plasma, mean. On the procedure: The study was a randomized, blinded, dose escalation trial to evaluate safety, tolerability, and pharmacokinetics. Healthy volunteers in each cohort (6 active/2 placebo) received a single dose of 25, 50, 100, 200 or 400 mg. An additional cohort received a standard dose of Viread for comparison of TFV-PP levels. For tenofovir anabolite analysis, PBMCs were lysed with 70% ice cold methanol and centrifuged; supernatants were analyzed using LC/MS/MS. The clinical samples were split into two aliquots. One aliquot was used for analysis of CMX157; following addition of an internal standard, these samples were evaporated to dryness prior to reconstitution and analysis. The second aliquot was for analysis of TFV, TFV-monophosphate and TFV-diphosphate; following addition of internal standards, samples were vortexed and centrifuged prior to analysis.

Data set [7] deals with human PBMCs. Conditions: activated human PBMCs, 1 μM TFV; cited from earlier work.
The target of data set [8] is human OAT1 (organic anion transporter1) (Homo sapiens (Human), UniProt Q4U2R8). Description: hOAT1 mediated uptake in MDCK-II cells. The following applies: for Cellular Accumulation (control): control vector cells of hOAT1 test; for Cellular Accumulation (transporter): hOAT1 expressing MDCK-II cells.
Setting [9] is: Human immunodeficiency virus 1, IIIB, CEM-SS, 144 h, read-out: CEMSS/IIIB EC50.
Where [10] appears, read: hOAT3, substrate alone (E3S 0.75 μM).

Read-outs that look alike come from different tables or passages of the source.

For `CC(Cn1cnc2c(N)ncnc21)OCP(=O)(O)OP(=O)(O)OP(=O)(O)O` (stereo in doubt) [TFV-PP, tenofovir-diphosphate], in data set [1] (Kiser et al. JAIDS 2008:47), the “median human TFV-PP” value is given as 0.076 pmol/10^6. Moreover, the “in vitro intracellular half-life of TFV-PP (t1/2)” value in data set [2] was 79.2 h.
`Cc1cn([C@H]2C[C@H](N=[N+]=[N-])[C@@H](CO)O2)c(=O)[nH]c1=O` [AZT, 3′-azido-2′,3′-dideoxythymidine, reference compound]: in data set [3], the “CEMSS TC50” value was above 0.1 µM. For the same compound, the EC50 in data set [4] (Human immunodeficiency virus 1, IIIB, CEM-SS) was 0.003 µM; in data set [4] (setting [9]), 0.003 µM. In addition, in data set [4] (TC50/EC50, CEM-SS, HIV-1 IIIB), the “Therapeutic Index” value was above 33.3.
As to `CCCCCCCCCCCCCCCCOCCCOP(=O)([O-])CO[C@H](C)Cn1cnc2c(N)ncnc21.[K+]` [CMX157 K^+ salt], the “CEMSS TC50” value in data set [3] turned out to be 5.2 µM. The EC50 in data set [4] (CEM-SS cells, HIV-1 IIIB) was below 0.03 µM; in data set [4] (read-out: CEMSS/IIIB EC50, CEM-SS cells, HIV-1 IIIB, 6 days, XTT) it was below 0.03 µM.
In the case of `C[C@H](Cn1cnc2c(N)ncnc21)OCP(=O)(O)OCCCO` [CMX157-210], the “CEMSS TC50” value in data set [3] is above 10.0 µM. Besides, the EC50 in data set [4] (setting [9]) was above 10 µM.
For `C[C@H](Cn1cnc2c(N)ncnc21)OCP(=O)(O)OCCCOCC(=O)O` [CMX157-211], in that order: above 10.0 µM and above 10 µM.
In the case of `C[C@H](Cn1cnc2c(N)ncnc21)OCP(=O)(O)OCCCOCCCC(=O)O` [CMX157-220], in data set [3], the “CEMSS TC50” value was above 10.0 µM. For the same compound, the EC50 in data set [4] (setting [9]) is above 10 µM.
For the compound `C[C@]12CC[C@@H]3c4ccc(OS(=O)(=O)O)cc4CC[C@H]3[C@@H]1CCC2=O` [E3S, estrone-3-sulfate], in data set [5] (substrate alone (E3S 0.75 μM)), the “Cellular Accumulation (control)” value is recorded as 39.5 ± 11.6 pmol/min/cm^2 and the “Cellular Accumulation (transporter)” value was determined as 30.7 pmol/min/cm^2. Also, the “Net Transporter Mediated Cellular Accumulation” value in data set [5] (setting [10]) is on record as −8.72 pmol/min/cm^2.
For the compound `C[C@H](Cn1cnc2c(N)ncnc21)OCP(=O)(O)O` [Tenofovir, (R)-9-(2-phosphonylmethoxypropyl)adenine, reference compound], the “TFV AUCINF” value in data set [6] (single oral dose CMX157 200 mg) was 283 ng·h/mL; in data set [6] (single oral dose CMX157 400 mg) it was 371 ng·h/mL. Besides, the “TFV Cmax” value in data set [6] (single oral dose CMX157 200 mg) worked out at 16 ng/mL; in data set [6] (single oral dose CMX157 400 mg), 27 ng/mL. Further, the “Cellular Accumulation (control)” value was 1.94 ± 0.345 pmol/min/cm^2 in data set [5] (+ 100 μM probenecid); 2.28 ± 1.24 pmol/min/cm^2 in data set [5] (+ 20% human serum); 2.65 ± 1.96 pmol/min/cm^2 in data set [5] (substrate alone (E3S 0.75 μM)); 2.22 ± 0.995 pmol/min/cm^2 in data set [8] (+ 100 μM probenecid); 1.77 ± 1.13 pmol/min/cm^2 in data set [8] (+ 20% human serum); 2.45 ± 0.197 pmol/min/cm^2 in data set [8] (substrate alone (PAH 2 μM)). For the same compound, the “Net Transporter Mediated Cellular Accumulation” value in data set [5] (hOAT3, + 100 μM probenecid) is 1.35 ± 0.364 pmol/min/cm^2; in data set [5] (hOAT3, + 20% human serum), −0.292 ± 0.0591 pmol/min/cm^2; in data set [5] (setting [10]), 1.03 ± 0.591 pmol/min/cm^2; in data set [8] (hOAT1, + 100 μM probenecid), 4.49 ± 1.46 pmol/min/cm^2; in data set [8] (hOAT1, + 20% human serum) it was 20.0 ± 3.45 pmol/min/cm^2; in data set [8] (hOAT1, substrate alone (PAH 2 μM)) it was 19.5 ± 4.04 pmol/min/cm^2. Also, the “Cellular Accumulation (transporter)” value in data set [5] (+ 100 μM probenecid) was found to be 3.29 ± 0.364 pmol/min/cm^2; in data set [5] (+ 20% human serum) it was 1.99 ± 0.0591 pmol/min/cm^2; in data set [5] (substrate alone (E3S 0.75 μM)), 3.68 ± 0.591 pmol/min/cm^2; in data set [8] (+ 100 μM probenecid), 6.71 ± 1.46 pmol/min/cm^2; in data set [8] (+ 20% human serum), 21.8 ± 3.45 pmol/min/cm^2; in data set [8] (substrate alone (PAH 2 μM)), 21.9 ± 4.04 pmol/min/cm^2. For the same compound, the TFV-diphosphate produced in data set [7] is 50 fmoles per million cells. For the same compound, the highest concentration (Cmax) in data set [1] (VIREAD package insert 2007) was around 1000 nM. Further, the “substrate for human OAT1” value in data set [8] (MDCK) was “appeared to be a substrate”.

The term Cmax denotes the peak of the concentration-time curve.
